In patent US10828241B2, “Skin lightening compositions and methods” (SYTHEON LIMITED, priority 2018, dated 2020):

System: skin pigmentation
Assay: Clinical study: facial pigment intensity from digital photography
Format: in vivo, human
Details: lotion with 1.00% acetyl zingerone (Formulation 1A) applied to full face twice daily, group of 17

COc1cc(CC(C(C)=O)C(C)=O)ccc1O [Compd. 1, Acetyl Zingerone]
Pigment Intensity (% Change), Average (4 weeks): −25.580% | Pigment Intensity (% Change), Average (8 weeks): −25.601%
